“Also recorded” adds a separate entry of the source. No end group written: not given here.
Key:
[1] = in vivo, ip
[2] = system: PACAP receptors in human neuroblastoma NB-OK-1 cell membranes; settings: Robberecht et al. 1992; read-out: reported Ki values; cited from earlier work
human PAC1 receptors [3] = molecular target: T1, human PAC1 receptors (Homo sapiens, UniProt P41586); test: FLIPR calcium flux, antagonist fixed concentration mode (Gaddum/Schild EC50 shift), PAC1-CHO cells; format: cell-based; settings: for shift of PACAP1-27 agonist curves: fixed concentrations of antagonist up to 1 μM
T1 construct: host or cells: CHO (clonal line PAC1-CHO)
T1 sequence (P41586 21-468): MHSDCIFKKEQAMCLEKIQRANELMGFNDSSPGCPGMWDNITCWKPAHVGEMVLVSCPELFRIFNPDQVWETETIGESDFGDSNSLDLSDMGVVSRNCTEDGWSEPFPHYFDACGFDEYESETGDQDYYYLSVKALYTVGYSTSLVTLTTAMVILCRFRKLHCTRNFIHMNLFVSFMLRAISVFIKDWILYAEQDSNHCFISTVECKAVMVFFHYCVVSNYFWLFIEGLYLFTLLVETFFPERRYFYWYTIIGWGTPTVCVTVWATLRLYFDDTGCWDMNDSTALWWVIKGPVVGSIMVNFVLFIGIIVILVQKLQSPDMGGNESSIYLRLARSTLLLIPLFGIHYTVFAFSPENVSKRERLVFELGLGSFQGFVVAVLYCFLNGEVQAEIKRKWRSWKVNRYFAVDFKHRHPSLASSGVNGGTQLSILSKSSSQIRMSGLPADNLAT
Method: A custom DNA clone of the human PAC1 gene with 3 hemagglutinin (HA) tags inserted 3′ to the signal peptide sequence (to avoid proteolytic loss) was obtained from Genecopoeia (Rockville, Md.). The construct was electroporated into Chinese Hamster Ovary (CHO) cells, and selected for with 500 μg/mL of G418. The resulting population was screened for high expressing clones, and one such clone selected for further analysis. […] This cell line was used for all molecular pharmacology experiments. […] All molecular pharmacology experiments were carried out using a FLIPR Tetra from Molecular Devices (Sunnyvale, Calif.), set to image calcium flux using the manufacturer's recommended settings and protocols. The day before an experiment, the PAC1-CHO cells were split into 384 well black walled, clear bottom microplates, 10,000 cells per well. The cells were recovered overnight in growth medium (as above). The next day, the growth medium was replaced with Calcium 6 dye (Molecular Devices) using the manufacturer recommended buffer with 2.5 mM probenecid. The cells were incubated for 2 hours in the culture incubator, and removed during the last 15 minutes to allow equilibration to room temperature. Compound as indicated below was added to the cells using a 384 tip block, with real time monitoring before, during, and 15 minutes after compound addition. The resulting calcium flux was recorded, and the maximum-minimum response over the entire observation time calculated and reported as the mean±SEM (4 wells per point). For antagonist mode experiments, a concentration curve (variable concentration mode) or fixed amount (fixed concentration mode) of antagonist was added to the cells, and allowed to equilibrate for 2 minutes. […] The resulting data was analyzed using a Gaddum/Schild EC50 shift model, (Schild, 1957, Gaddum, 1957) designed to analyze competitive antagonism. […] The pharmacology values are calculated separately from each experiment, then combined and reported as the mean±SEM for the entire set of experiments.

human PAC1 receptors [4] = molecular target: T1, human PAC1 receptors; test: FLIPR calcium flux, antagonist variable concentration mode versus 5 nM PACAP1-27, PAC1-CHO cells; format: cell-based; settings: up to 1 μM
Method: A custom DNA clone of the human PAC1 gene with 3 hemagglutinin (HA) tags inserted 3′ to the signal peptide sequence (to avoid proteolytic loss) was obtained from Genecopoeia (Rockville, Md.). The construct was electroporated into Chinese Hamster Ovary (CHO) cells, and selected for with 500 μg/mL of G418. The resulting population was screened for high expressing clones, and one such clone selected for further analysis. […] This cell line was used for all molecular pharmacology experiments. The cells were maintained in DMEM/F12 with 10% heat-inactivated FBS, 1× penicillin/streptomycin, and 500 μg/mL G418, at 37° C. and 5% CO2.
All molecular pharmacology experiments were carried out using a FLIPR Tetra from Molecular Devices (Sunnyvale, Calif.), set to image calcium flux using the manufacturer's recommended settings and protocols. […] The resulting calcium flux was recorded, and the maximum-minimum response over the entire observation time calculated and reported as the mean±SEM (4 wells per point).
For antagonist mode experiments, a concentration curve (variable concentration mode) or fixed amount (fixed concentration mode) of antagonist was added to the cells, and allowed to equilibrate for 2 minutes. […] The resulting data was analyzed using a Gaddum/Schild EC50 shift model, (Schild, 1957, Gaddum, 1957) designed to analyze competitive antagonism. […]

PC12 cells = test: Differentiation of cultured PC12 cells; format: cell-based; settings: 100 nM, compared to vehicle treated cells, qualitative
Method: The PC12 cells were cultured in RPMI containing 5% heat inactivated fetal bovine serum and 10% horse serum in the presence of 100 units/mL penicillin and 100 microgram/mL streptomycin. The cells were plated on poly-D-Lysine coated 6-well tissue culture plates at a density of 150,000 cells per well in 2 mL media. After 48 hours at 37° C. in 5% CO2 atmosphere, media exchange was performed and plates were dosed, using the peptide diluent (water) for the control samples. […] Cell images of each treatment group were captured and compared to the control cells to screen for differentiation and cell body volume increases. Cells having neurite-like process outgrowth were noted and photographed. The neurite-like outgrowth was deemed positive if its length was at least two times the width of the cell body.

CC[C@H](C)[C@H](NC(=O)CNC(=O)[C@H](CC(=O)O)NC(=O)[C@H](CO)NC(=O)[C@@H](N)Cc1c[nH]cn1)C(=O)N[C@@H](Cc1ccccc1)C(=O)N[C@H](C(=O)N[C@@H](CC(=O)O)C(=O)N[C@@H](CO)C(=O)N[C@@H](Cc1ccc(O)cc1)C(=O)N[C@@H](CO)C(=O)N[C@@H](CCCNC(=N)N)C(=O)N[C@@H](Cc1ccc(O)cc1)C(=O)N[C@@H](CCCNC(=N)N)C(=O)N[C@@H](CCCCN)C(=O)N[C@@H](CCC(N)=O)C(=O)N[C@@H](CCSC)C(=O)N[C@@H](C)C(=O)N[C@H](C(=O)N[C@@H](CCCCN)C(=O)N[C@@H](CCCCN)C(=O)N[C@@H](Cc1ccc(O)cc1)C(=O)N[C@@H](CC(C)C)C(=O)N[C@@H](C)C(=O)N[C@@H](C)C(=O)N[C@H](C(=O)N[C@@H](CO[C@@H]1O[C@H](CO)[C@@H](O)[C@H](O)[C@H]1O)C(N)=O)C(C)C)C(C)C)[C@@H](C)O [PACAP1-27-S-G]
presence in mouse brain / crossing the blood brain barrier [1]: presence in mouse brain could be detected

CSCC[C@H](NC(=O)[C@H](CCC(N)=O)NC(=O)[C@H](CCCCN)NC(=O)[C@H](CCCNC(=N)N)NC(=O)[C@H](Cc1ccc(O)cc1)NC(=O)[C@H](CCCNC(=N)N)NC(=O)[C@H](CO)NC(=O)[C@H](Cc1ccc(O)cc1)NC(=O)[C@H](CO)NC(=O)[C@H](CC(=O)O)NC(=O)[C@@H](NC(=O)[C@@H](N)Cc1ccccc1)[C@@H](C)O)C(=O)N[C@@H](C)C(=O)N[C@H](C(=O)N[C@@H](CCCCN)C(=O)N[C@@H](CCCCN)C(=O)N[C@@H](Cc1ccc(O)cc1)C(=O)N[C@@H](CC(C)C)C(=O)N[C@@H](C)C(=O)N[C@@H](C)C(=O)N[C@H](C(=O)N[C@@H](CC(C)C)C(=O)NCC(=O)N[C@@H](CCCCN)C(=O)N[C@@H](CCCNC(=N)N)C(=O)N[C@@H](Cc1ccc(O)cc1)C(=O)N[C@@H](CCCCN)C(=O)N[C@@H](CCC(N)=O)C(=O)N[C@@H](CCCNC(=N)N)C(=O)N[C@H](C(=O)N[C@@H](CCCCN)C(=O)N[C@@H](CC(N)=O)C(=O)N[C@@H](CCCCN)C(N)=O)C(C)C)C(C)C)C(C)C [PACAP6-38]
Ki [2]: 1.5 nM | Schild Slope (human PAC1 receptors [3]; fixed concentration mode): 2.0±0.1 | shift of PACAP1-27 agonist curves (human PAC1 receptors [3]): induced a shift only at 1 μM; also recorded: shifts the curve only at the highest concentration (1 μM) | antagonist activity at PAC1 (in words) (human PAC1 receptors [4]): very weak antagonist activity; also recorded: shows antagonism, but it is low potency

CC[C@H](C)[C@H](NC(=O)CNC(=O)[C@H](CC(=O)O)NC(=O)[C@H](CO)NC(=O)[C@@H](N)Cc1c[nH]cn1)C(=O)N[C@@H](Cc1ccccc1)C(=O)N[C@H](C(=O)N[C@@H](CC(=O)O)C(=O)N[C@@H](CO)C(=O)N[C@@H](Cc1ccc(O)cc1)C(=O)N[C@@H](CO)C(=O)N[C@@H](CCCNC(=N)N)C(=O)N[C@@H](Cc1ccc(O)cc1)C(=O)N[C@@H](CCCNC(=N)N)C(=O)N[C@@H](CCCCN)C(=O)N[C@@H](CCC(N)=O)C(=O)N[C@@H](CCSC)C(=O)N[C@@H](C)C(=O)N[C@H](C(=O)N[C@@H](CCCCN)C(=O)N[C@@H](CCCCN)C(=O)N[C@@H](Cc1ccc(O)cc1)C(=O)N[C@@H](CC(C)C)C(=O)N[C@@H](C)C(=O)N[C@@H](C)C(=O)N[C@H](C(=O)N[C@@H](CC(C)C)C(N)=O)C(C)C)C(C)C)[C@@H](C)O [PACAP1-27]
neurite-like process outgrowth / differentiation (PC12 cells): induced neurite outgrowth

FTDSY10SRYRKQMAVK20KYLAAVL (FTDSYSRYRKQMAVKKYLAAVL-NH2; ends and bridges not checked) [PACAP6-27]
Ki [2]: 60 nM | shift of PACAP1-27 agonist curves (human PAC1 receptors [3]): caused no shift in the agonist curves; also recorded: no detectable shifts in the agonist curves | antagonist activity at PAC1 (in words) (human PAC1 receptors [4]): no antagonist activity and none

Reference: US10858410B2, “Glycosylated peptides with pseudoproline residues and having enhanced half-lives and ability to cross the blood brain barrier” (ARIZONA BOARD OF REGENTS ON BEHALF OF THE UNIVERSITY OF …, priority 2015, dated 2020)
